# Assay results published in patent US9062041B2 (Bayer Intellectual Property GmbH, priority 2011, dated 2015).
# Legend:
# Format in all cases: cell-based
# human PGD receptor = target: T1, human PGD receptor (Homo sapiens, UniProt Q13258); test: cAMP antagonism test on the human prostaglandin D receptor (HTRF cAMP detection); conditions: selectivity towards hDP, IC50 measured by cAMP antagonism test
# T1 sequence (Q13258 1-359): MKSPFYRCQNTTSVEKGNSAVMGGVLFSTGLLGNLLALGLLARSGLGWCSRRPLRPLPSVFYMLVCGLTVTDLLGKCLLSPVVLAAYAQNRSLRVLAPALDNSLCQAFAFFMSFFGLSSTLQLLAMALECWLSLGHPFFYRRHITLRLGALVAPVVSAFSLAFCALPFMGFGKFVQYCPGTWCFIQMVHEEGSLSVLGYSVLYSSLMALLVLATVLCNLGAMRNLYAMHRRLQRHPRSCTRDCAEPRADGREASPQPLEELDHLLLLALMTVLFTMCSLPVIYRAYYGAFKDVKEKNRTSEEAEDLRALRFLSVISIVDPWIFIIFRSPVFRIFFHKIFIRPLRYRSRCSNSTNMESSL
# Summary of the method: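 HTRF competition read-out (665/620 nm ratio ×10000), where higher FRET means less cAMP, i.e. antagonism. Compounds (0.8 nM–16.5 μM) were preincubated 20 min at RT with cells and cAMP-d2, PGD2 (3× solution, 6 nM) in IBMX-containing PBS added for 30 min at RT, then cells lysed 20 min.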
# [1] = target: EP4 subtype of the human PGE2 receptor (Homo sapiens, UniProt P35408); test: cAMP antagonism test on the human EP4 receptor (HTRF cAMP detection); conditions: selectivity towards hEP4, IC50 measured by cAMP antagonism test
# Summary of the method: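 Competitive HTRF cAMP read-out (cAMP-d2 vs Eu-cryptate anti-cAMP antibody, 665/620 nm ratio) on lysed human EP4 cells. Compound (0.8 nM–16.5 μM) applied 20 min at RT before 60 min PGE2 challenge (3× solution 0.3 nM, IBMX present); 20 min lysis precedes reading.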
# [2] = target: EP2 subtype of the human PGE2 receptor (Homo sapiens, UniProt P43116); test: cAMP antagonism test on the human EP2 receptor (HTRF cAMP detection); conditions: hEP2 receptor, read-out: Antagonism hEP2 IC50
# Summary of the method: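 Read-out is a competitive HTRF for cAMP: lysate cAMP displaces cAMP-d2 from Eu cryptate-labelled antibody, and antagonism raises the 665/620 nm ratio. Compound (0.8 nM–16.5 μM) added to EP2 cells 20 min at RT before 60 min PGE2 challenge (3× stock 1.5 nM) with IBMX, followed by 20 min lysis.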
# Chain of EP4 subtype of the human PGE2 receptor (P35408 whole entry): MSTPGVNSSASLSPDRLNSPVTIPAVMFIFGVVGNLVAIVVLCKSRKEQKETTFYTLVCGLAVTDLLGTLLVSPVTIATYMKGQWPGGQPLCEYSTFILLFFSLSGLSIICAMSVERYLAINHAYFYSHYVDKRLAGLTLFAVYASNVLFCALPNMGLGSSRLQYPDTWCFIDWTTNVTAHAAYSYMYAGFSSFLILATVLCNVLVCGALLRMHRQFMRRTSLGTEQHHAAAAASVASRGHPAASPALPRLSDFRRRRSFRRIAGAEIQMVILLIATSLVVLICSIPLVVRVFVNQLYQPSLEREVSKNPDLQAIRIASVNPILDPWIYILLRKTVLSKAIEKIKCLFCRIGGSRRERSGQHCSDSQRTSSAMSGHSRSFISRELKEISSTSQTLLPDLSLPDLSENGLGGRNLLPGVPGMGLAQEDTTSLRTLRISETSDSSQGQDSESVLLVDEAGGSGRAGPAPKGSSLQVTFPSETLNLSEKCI
# Chain of EP2 subtype of the human PGE2 receptor (P43116 whole entry): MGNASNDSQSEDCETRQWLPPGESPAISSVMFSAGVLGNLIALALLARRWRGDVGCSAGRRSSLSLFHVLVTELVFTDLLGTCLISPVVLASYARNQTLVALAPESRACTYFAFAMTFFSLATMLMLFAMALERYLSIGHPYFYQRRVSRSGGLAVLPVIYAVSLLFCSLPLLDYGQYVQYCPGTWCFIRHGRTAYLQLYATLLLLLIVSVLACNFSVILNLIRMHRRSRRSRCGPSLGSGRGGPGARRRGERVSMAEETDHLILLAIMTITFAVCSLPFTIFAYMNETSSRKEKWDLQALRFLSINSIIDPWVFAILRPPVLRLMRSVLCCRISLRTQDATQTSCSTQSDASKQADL
Structure (SMILES),Selectivity hEP2/hDP (human PGD receptor),Selectivity hEP2/hEP4 [1],IC50 [2] [nM]
"Cc1c(C(=O)NCC2COCCO2)ccc2nn(CC3CN(C(=O)c4ccc(Cl)cc4)C3)cc12 (single isomer, unassigned) [Example 142, (R or S)-2-{[1-(4-chlorobenzoyl)azetidin-3-yl]methyl}-N-(1,4-dioxan-2-ylmethyl)-4-methyl-2H-indazol-5-carboxamide]",xx (xx: 10-100),xx (xx: 10-100),713
"Cc1cc2nn(CC3CCN(C(=O)c4ccc(C(F)(F)F)cc4F)CC3)cc2cc1C(=O)NCCN1CCOCC1 [Example 80, 2-({1-[2-fluoro-4-(trifluoromethyl)-benzoyl]piperidin-4-yl}-methyl)-6-methyl-N-(2-morpholinoethyl)-2H-indazol-5-carboxamide]",xxx (xxx > 100),xxx (xxx > 100),85.9
"O=C(NCCOCC1CC1)c1ccc2nn(CC3CCN(C(=O)c4ccc(-c5ccc(F)cc5)cc4)CC3)cc2c1OC(F)F [Example 231, N-[2-(cyclopropylmethoxy)ethyl]-4-(difluoromethoxy)-2-({1-[(4′-fluorobiphenyl-4-yl)carbonyl]piperidin-4-yl}methyl)-2H-indazol-5-carboxamide]",xxx (xxx > 100),xxx (xxx > 100),13.2
"COC(C)CNC(=O)c1ccc2nn(CC3CN(C(=O)c4ccc(Cl)cc4)C3)cc2c1C (racemic) [Example 138, (+/−)-2-{[1-(4-chlorobenzoyl)azetidin-3-yl]methyl}-N-(2-methoxypropyl)-4-methyl-2H-indazol-5-carboxamide]",xxx (xxx > 100),xxx (xxx > 100),160
"Cc1c(C(=O)NCC(F)(F)F)ccc2nn(CC3CCN(C(=O)c4nc(-c5ccccc5)no4)CC3)cc12 [Example 305, 4-methyl-2-({1-[(3-phenyl-1,2,4-oxadiazol-5-yl)carbonyl]piperidin-4-yl}methyl)-N-(2,2,2-trifluoroethyl)-2H-indazol-5-carboxamide]",xx (xx: 10-100),xx (xx: 10-100),301
"COCCNC(=O)c1ccc2nn(CC3CCN(C(=O)c4ccc(Oc5ccc(C(N)=O)cc5)cc4)CC3)cc2c1C [Example 30, 2-({1-[4-(4-carbamoylphenoxy)-benzoyl]piperidin-4-yl}methyl)-N-(2-methoxyethyl)-4-methyl-2H-indazol-5-carboxamide]",xxx (xxx > 100),xxx (xxx > 100),64.3
"COCCNC(=O)c1ccc2nn(CC3CN(C(=O)c4ccc(C(F)(F)F)c(F)c4)C3)cc2c1C [Example 122, 2-({1-[3-fluoro-4-(trifluoromethyl)benzoyl]azetidin-3-yl}methyl)-N-(2-methoxy-ethyl)-4-methyl-2H-indazol-5-carboxamide]",xxx (xxx > 100),xxx (xxx > 100),28.6
"COc1ccc2c(c1)cc(C(=O)N1CCC(Cn3cc4c(C)c(C(=O)NCC(F)(F)F)ccc4n3)CC1)n2C [Example 293, 2-({1-[(5-methoxy-1-methyl-1H-indol-2-yl)carbonyl]piperidin-4-yl}methyl)-4-methyl-N-(2,2,2-trifluoroethyl)-2H-indazol-5-carboxamide]",xxx (xxx > 100),xxx (xxx > 100),28.3
"CCOCCNC(=O)c1ccc2nn(CC3CCN(C(=O)c4ccc(Cl)cc4)CC3)cc2c1OC [Example 264, 2-{[1-(4-chlorobenzoyl)piperidin-4-yl]methyl}-N-(2-ethoxyethyl)-4-methoxy-2H-indazol-5-carboxamide]",xxx (xxx > 100),xxx (xxx > 100),13.7
"Cc1c(C(=O)NCCSC(F)(F)F)ccc2nn(CC3CN(C(=O)c4ccc(OC(F)(F)F)cc4)C3)cc12 [Example 133, 4-methyl-2-({1-[4-(trifluoromethoxy)benzoyl]azetidin-3-yl}methyl)-N-{2-[(trifluoromethyl)sulphanyl]ethyl}-2H-indazol-5-carboxamide]",xxx (xxx > 100),xxx (xxx > 100),41.9

# These reach a lower IC50 [2]. Values come first.
Selectivity hEP2/hDP (human PGD receptor),Selectivity hEP2/hEP4 [1],IC50 [2] [nM],Structure (SMILES)
xxx (xxx > 100),xxx (xxx > 100),11.4,"Cc1c(C(=O)NCCOC(F)(F)F)ccc2nn(CC3CCN(C(=O)c4ccc(Cl)cc4)CC3)cc12 [Example 107, 2-{[1-(4-chlorobenzoyl)piperidin-4-yl]methyl}-4-methyl-N-[2-(trifluoromethoxy)ethyl]-2H-indazol-5-carboxamide]"
xxx (xxx > 100),xxx (xxx > 100),8.19,"Cc1c(C(=O)NCC2CC2)ccc2nn(CC3CCN(C(=O)c4ccc(Oc5ccc(C(F)(F)F)cc5)cc4)CC3)cc12 [Example 406, N-(cyclopropylmethyl)-4-methyl-2-[(1-{4-[4-(trifluoromethyl)phenoxy]-benzoyl}piperidin-4-yl)methyl]-2H-indazol-5-carboxamide]"
xxx (xxx > 100),xxx (xxx > 100),7.36,"COCCNC(=O)c1ccc2nn(CC3CCN(C(=O)c4ccc(Oc5ccc(Cl)cn5)cc4)CC3)cc2c1C [Example 357, 2-[(1-{4-[(5-chloropyridin-2-yl)oxy]benzoyl}piperidin-4-yl)methyl]-N-(2-methoxyethyl)-4-methyl-2H-indazol-5-carboxamide]"
xxx (xxx > 100),xxx (xxx > 100),6.46,"Cc1c(C(=O)NCCOC(F)(F)F)ccc2nn(CC3CCN(C(=O)c4ccc(Oc5ccc(F)cc5)cc4)CC3)cc12 [Example 108, 2-({1-[4-(4-fluoro-phenoxy)benzoyl]-piperidin-4-yl}methyl)-4-methyl-N-[2-(tri-fluoromethoxy)ethyl]-2H-indazol-5-carboxamide]"
xxx (xxx > 100),xxx (xxx > 100),6.21,"Cc1c(C(=O)NCCOC(C)C)ccc2nn(CC3CCN(C(=O)c4ccc(-c5ccc(F)cc5)cc4)CC3)cc12 [Example 100, 2-({1-[(4′-fluoro-biphenyl-4-yl)-carbonyl]piperidin-4-yl}methyl)-N-(2-isopropoxyethyl)-4-methyl-2H-indazol-5-carboxamide]"
xxx (xxx > 100),xxx (xxx > 100),5.09,"COCCNC(=O)c1ccc2nn(CC3CCN(C(=O)c4ccc(C5CCCCC5)cc4)CC3)cc2c1C [Example 335, 2-{[1-(4-cyclohexylbenzoyl)piperidin-4-yl]methyl}-N-(2-methoxyethyl)-4-methyl-2H-indazol-5-carboxamide]"
